Values after ≈ are worked out from the molar mass of the structure shown.
Tests used:
Micrococcus luteus = experiment: Antimicrobial activity against Micrococcus luteus; type: functional
Cryptococcus neoformans = experiment: Antimicrobial activity against Cryptococcus neoformans; type: functional
[1] = test system: Trichophyton mentagrophytes; experiment: Antimicrobial activity against Trichophyton mentagrophytes; type: functional
L1210 = experiment: Cytotoxicity against mouse L1210 cells; type: functional, cell-based
KB = experiment: Cytotoxicity against human KB cells; type: functional; conditions: read-out: MIC

Compound | MIC (Micrococcus luteus) [µg/mL] | MIC (Cryptococcus neoformans) [µg/mL] | MIC [1] [µg/mL] | IC50 (L1210) [µg/mL] | cytotoxic concentration (KB) [µg/mL]
CC(C)=CCC[C@]1(C)Oc2c(c(O)c(C)c(O)c2C(=O)C(C)C)C[C@H]1O [PETIOLIN J] | 8 (≈ 22.1 µM) | 16 (≈ 44.1 µM) | 16 (≈ 44.1 µM) | > 10 | > 10
Cc1c(O)c(C(=O)C(C)C)c2c3c1OC(C)(C)[C@@H]1CC[C@@](C)(C[C@@H]31)O2 [PETIOLIN K] | – | – | – | > 10 | > 10
CCC(C)C(=O)C1=C2O[C@@H]([C@@](C)(O)CCC=C(C)C)C[C@]2(CC=C(C)C)C(=O)C(C)(C)C1=O (stereo partly specified) [PETIOLIN L] | – | – | – | > 10 | > 10
CC(C)=CCC[C@](C)(O)[C@H]1C[C@@]2(CC=C(C)C)C(=O)C(C)(C)C(=O)C(C(=O)C(C)C)=C2O1 [PETIOLIN M] | – | – | – | > 10 | > 10

Source: ChEMBL document CHEMBL1208744, “Petiolins J-M, prenylated acylphloroglucinols from Hypericum pseudopetiolatum var. kiusianum” (Bioorg Med Chem Lett, 2010)
